Data on nine compounds can be found in US5455356A, “Fungicidal 1-aryl-1-[α-(triazolyl)alkyl]-1-silacycloalkanes and their preparation methods” (priority 1993, dated 1995).

The structures appear in SMILES notation. Where two headings read alike, the source gives them in different places.

Common to all, as to type: cell-based
One experiment deals with GC. Briefly: In vitro mycelial/spore growth on potato-sucrose-agar, percent disease control (GC). As to conditions: read-out: % controlled, GC; for inhibition of growth at 50 ppm: GC. The protocol:
(§1) The compounds of this invention were dissolved respectively in acetone in an amount equal to 10% of the final volume and then in purified water at the concentration of 100 ppm and 50 ppm.
(§2) Each of the solution was mixed with potato-sucrose-agar medium in 6" petri dish and one of the fungi was spotted at the center of the dish. The dish was incubated in growth room for several days. The percent disease control was derived from the radii of spore growth. The screening tests in vitro condition are well-known to those skilled in the art.
(§3) The following fungi were used for the screening.

A further experiment relates to Rhizoctonia solani. As to the kind of experiment: In vitro mycelial/spore growth on potato-sucrose-agar, percent disease control (RS, first column). The settings on record: read-out: % controlled, RS. The protocol: as §1, §2, §3
7) Rhi. so.; Rhizoctonia solani

Another experiment concerns Botritis cinerea. As to the kind of experiment: In vitro mycelial/spore growth on potato-sucrose-agar, percent disease control (BC). The settings on record: read-out: % controlled, BC. The protocol:
as §1, §2, §3
10) Bo. ci.; Botritis cinerea

The subject of the next experiment is Phytophthora capsisi. As to the kind of experiment: In vitro mycelial/spore growth on potato-sucrose-agar, percent disease control (PC). The settings on record: read-out: % controlled, PC. The protocol:
as §1, §2, §3
2) Phy. ca.; Phytophthora capsisi

For the next experiment, the system named is Fusarium moniliforme. Briefly: In vitro mycelial/spore growth on potato-sucrose-agar, percent disease control (FM). The settings on record: Fusarium verticillioides, read-out: % controlled, FM. The protocol: as §1, §2, §3
8) Fu. mo.; Fusarium moniliforme

Another experiment relates to Rhizopus sp. As to the kind of experiment: In vitro mycelial/spore growth on potato-sucrose-agar, percent disease control (RS, second column). As to conditions: read-out: % controlled, RS. The protocol: as §1, §2, §3
9) Rhi. sp.; Rhizopus sp.

Another experiment concerns Botryosphaeri. As to the kind of experiment: In vitro mycelial/spore growth on potato-sucrose-agar, percent disease control (BD). The settings on record: read-out: % controlled, BD. The protocol:
as §1, §2, §3
4) Bo. do (Ma); Botryosphaeri

A further experiment has as its system Pyricalaria oryzae. As to the kind of experiment: In vitro mycelial/spore growth on potato-sucrose-agar, percent disease control (PO). The settings on record: read-out: % controlled, PO. The protocol:
as §1, §2, §3
6) Py. or.; Pyricalaria oryzae

Regarding `Fc1ccc([Si]2(Cn3cncn3)CCCC2)cc1` [1-(4-fluorophenyl)-1-(1H-1,2,4-triazole-1-yl)methyl-1-silacyclopentane], the inhibition of growth at 50 ppm with GC worked out at 100%; in the experiment with Rhizoctonia solani, 95%; in the experiment on Botritis cinerea, 100%; in the experiment with Phytophthora capsisi, 80%; in the experiment on Fusarium moniliforme, 10%; in the experiment with Rhizopus sp. (Rhizopus) it was 75%. The inhibition of growth at 50 ppm in the experiment with Botryosphaeri and with Pyricalaria oryzae was 100% each time. The inhibition of growth at 200 ppm in the experiment on GC is 100%; in the experiment with Rhizoctonia solani, 100%; in the experiment with Botritis cinerea, 100%; in the experiment on Phytophthora capsisi, 100%; in the experiment with Fusarium moniliforme (Fusarium moniliforme), 100%; in the experiment with Rhizopus sp. (Rhizopus) it was 83%. Besides, the inhibition of growth at 200 ppm in the experiment on Botryosphaeri and with Pyricalaria oryzae was 100% throughout.
Take `FC(F)(F)c1ccc([Si]2(Cn3cncn3)CCCC2)cc1` [1-(4-trifluoromethyl)-1-(1H-1,2,4-triazole-1-yl)methyl-1-silacyclopentane]: the inhibition of growth at 50 ppm is 100% in the experiment on GC; 95% in the experiment on Rhizoctonia solani; 96% in the experiment on Botritis cinerea; 70% in the experiment with Phytophthora capsisi; 79% with Fusarium moniliforme (50 ppm, Fusarium moniliforme); 69% with Rhizopus sp. (50 ppm, Rhizopus sp.). Further, the inhibition of growth at 50 ppm turned out to be 96% in the experiment with Botryosphaeri and 100% with Pyricalaria oryzae. Further, the inhibition of growth at 200 ppm with GC turned out to be 100%; with Rhizoctonia solani it was 99%; in the experiment on Botritis cinerea, 100%; in the experiment with Phytophthora capsisi it was 79%; in the experiment with Fusarium moniliforme (Fusarium moniliforme), 100%; in the experiment on Rhizopus sp. (Rhizopus), 72%. Also, the inhibition of growth at 200 ppm with Botryosphaeri and in the experiment on Pyricalaria oryzae was 100% throughout.
Take `FC(F)(F)c1ccc([Si]2(Cn3cncn3)CCCCC2)cc1` [1-(4-trifluoromethyl)-1-(1H-1,2,4-triazole-1-yl)methyl-1-silacyclohexane]: the inhibition of growth at 50 ppm came out at 100% in the experiment on GC; 54% in the experiment on Rhizoctonia solani; 93% in the experiment with Botritis cinerea; 75% in the experiment with Phytophthora capsisi; 82% in the experiment with Fusarium moniliforme (50 ppm, Fusarium moniliforme); 63% in the experiment on Rhizopus sp. (50 ppm, Rhizopus sp.). Further, the inhibition of growth at 50 ppm with Botryosphaeri and in the experiment with Pyricalaria oryzae was 100% throughout. Further, the inhibition of growth at 200 ppm with GC stood at 100%; with Rhizoctonia solani it was 80%; in the experiment on Botritis cinerea, 100%; in the experiment with Phytophthora capsisi, 99%; with Fusarium moniliforme (Fusarium moniliforme) it was 98%; with Rhizopus sp. (Rhizopus) it was 76%. For the same compound, the inhibition of growth at 200 ppm in the experiment with Botryosphaeri and with Pyricalaria oryzae was 100% in each case.
In the case of `CCOc1ccc([Si]2(C(C)n3cncn3)CCCCC2)cc1` (stereo not drawn) [1-(4-ethoxyphenyl)-1-[α-(1H-1,2,4-triazole-1-yl)ethyl]-1-silacyclohexane], the inhibition of growth at 50 ppm turned out to be 100% in the experiment on GC; 97% in the experiment with Rhizoctonia solani; 65% with Botritis cinerea; 45% in the experiment on Phytophthora capsisi; 65% with Fusarium moniliforme (50 ppm, Fusarium moniliforme); 34% in the experiment with Rhizopus sp. (50 ppm, Rhizopus sp.). In addition, the inhibition of growth at 50 ppm amounted to 92% in the experiment on Botryosphaeri and 100% in the experiment with Pyricalaria oryzae. Further, the inhibition of growth at 200 ppm was 100% in the experiment with GC; 100% in the experiment with Rhizoctonia solani; 98% with Botritis cinerea; 75% in the experiment on Phytophthora capsisi; 98% in the experiment with Fusarium moniliforme (Fusarium moniliforme); 56% with Rhizopus sp. (Rhizopus). Further, the inhibition of growth at 200 ppm with Botryosphaeri and in the experiment on Pyricalaria oryzae was 100% throughout.
Take `CCOc1ccc([Si]2(Cn3cncn3)CCCCC2)cc1` [1-(4-ethoxyphenyl)-1-(1H-1,2,4-triazole-1-yl)methyl-1-silacyclohexane]: the inhibition of growth at 50 ppm came to 100% in the experiment with GC; 94% in the experiment on Rhizoctonia solani; 74% in the experiment on Botritis cinerea; 65% in the experiment with Phytophthora capsisi; 73% with Fusarium moniliforme (50 ppm, Fusarium moniliforme); 54% in the experiment with Rhizopus sp. (50 ppm, Rhizopus sp.). Further, the inhibition of growth at 50 ppm in the experiment on Botryosphaeri stood at 79%; in the experiment with Pyricalaria oryzae it was 100%. Further, the inhibition of growth at 200 ppm was 100% with GC; 100% in the experiment on Rhizoctonia solani; 94% with Botritis cinerea; 87% with Phytophthora capsisi; 99% with Fusarium moniliforme (Fusarium moniliforme); 85% with Rhizopus sp. (Rhizopus). The inhibition of growth at 200 ppm with Botryosphaeri and with Pyricalaria oryzae was 100% in each case.
Take `c1ccc(-c2ccc([Si]3(Cn4cncn4)CCCC3)cc2)cc1` [1-(4-biphenyl)-1-(1H-1,2,4-triazole-1-yl)methyl-1-silacyclopentane]: the inhibition of growth at 50 ppm in the experiment with GC was 100%; in the experiment with Rhizoctonia solani, 89%; with Botritis cinerea it was 15%; in the experiment with Phytophthora capsisi it was 68%; with Fusarium moniliforme (50 ppm, Fusarium moniliforme), 47%; in the experiment on Rhizopus sp. (50 ppm, Rhizopus sp.), 69%. Besides, the inhibition of growth at 50 ppm with Botryosphaeri was found to be 72%; in the experiment on Pyricalaria oryzae, 100%. The inhibition of growth at 200 ppm with GC was found to be 100%; in the experiment with Rhizoctonia solani it was 93%; in the experiment with Botritis cinerea it was 30%; in the experiment with Phytophthora capsisi it was 100%; in the experiment with Fusarium moniliforme (Fusarium moniliforme), 100%; in the experiment with Rhizopus sp. (Rhizopus) it was 72%. Further, the figures for the inhibition of growth at 200 ppm with Botryosphaeri and in the experiment with Pyricalaria oryzae were 72% and 100%, respectively.
As for `CC(n1cncn1)[Si]1(c2ccc(-c3ccccc3)cc2)CCCCC1` (stereo not drawn) [1-(4-biphenyl)-1-[α-(1H-1,2,4-triazole-1-yl)ethyl]-1-silacyclohexane], the inhibition of growth at 50 ppm came out at 100% in the experiment with GC; 100% in the experiment on Rhizoctonia solani; 100% in the experiment with Botritis cinerea; 92% with Phytophthora capsisi; 100% in the experiment on Fusarium moniliforme (50 ppm, Fusarium moniliforme); 79% with Rhizopus sp. (50 ppm, Rhizopus sp.). Also, the inhibition of growth at 50 ppm with Botryosphaeri and in the experiment on Pyricalaria oryzae was 100% throughout. The inhibition of growth at 200 ppm in the experiment with GC was 100%; with Rhizoctonia solani, 100%; in the experiment with Botritis cinerea, 100%; with Phytophthora capsisi, 100%; in the experiment with Fusarium moniliforme (Fusarium moniliforme) it was 100%; with Rhizopus sp. (Rhizopus), 89%. Besides, the inhibition of growth at 200 ppm with Botryosphaeri and with Pyricalaria oryzae was 100% throughout.
For the compound `COc1ccc([Si]2(Cn3cncn3)CCCC2)cc1` [1-(4-methoxyphenyl)-1-(1H-1,2,4-triazole-1-yl)methyl-1-silacyclopentane], the inhibition of growth at 50 ppm turned out to be 100% in the experiment with GC; 74% in the experiment on Rhizoctonia solani; 72% with Botritis cinerea; 41% in the experiment on Phytophthora capsisi; 70% in the experiment on Fusarium moniliforme (50 ppm, Fusarium moniliforme); 64% with Rhizopus sp. (50 ppm, Rhizopus sp.). Besides, the inhibition of growth at 50 ppm with Botryosphaeri came out at 75%; with Pyricalaria oryzae, 100%. The inhibition of growth at 200 ppm in the experiment on GC was determined as 100%; in the experiment with Rhizoctonia solani it was 100%; with Botritis cinerea, 77%; in the experiment on Phytophthora capsisi, 100%; with Fusarium moniliforme (Fusarium moniliforme), 80%; in the experiment on Rhizopus sp. (Rhizopus), 75%. Besides, the inhibition of growth at 200 ppm in the experiment with Botryosphaeri stood at 79%; with Pyricalaria oryzae, 100%.
`CC(n1cncn1)[Si]1(c2ccc(C(F)(F)F)cc2)CCCC1` (stereo not drawn) [1-(4-trifluoromethyl)-1-[α-(1H-1,2,4-triazole-1-yl)ethyl]-1-silacyclopentane]: the inhibition of growth at 50 ppm with GC is 100%; in the experiment on Rhizoctonia solani, 92%; in the experiment with Botritis cinerea, 94%; in the experiment on Phytophthora capsisi it was 86%; in the experiment with Fusarium moniliforme (50 ppm, Fusarium moniliforme), 73%; in the experiment on Rhizopus sp. (50 ppm, Rhizopus sp.), 56%. Also, the inhibition of growth at 50 ppm amounted to 90% with Botryosphaeri and 100% in the experiment with Pyricalaria oryzae. The inhibition of growth at 200 ppm came out at 100% with GC; 100% in the experiment with Rhizoctonia solani; 100% in the experiment on Botritis cinerea; 98% with Phytophthora capsisi; 99% in the experiment with Fusarium moniliforme (Fusarium moniliforme); 75% in the experiment with Rhizopus sp. (Rhizopus). The inhibition of growth at 200 ppm with Botryosphaeri and in the experiment on Pyricalaria oryzae was 100% each time.
